Data: patent publication US20050170989A1, “Fluorine-containing water-soluble nonionic surface-active compounds, use thereof and process for preparation of the compounds” (DAIKIN INDUSTRIES, LTD., priority 2002, published 2005)

What was measured:
Assay type in all cases: physicochemical
[1] = Water solubility evaluation, observed with the naked eye; settings: 25° C.; for Water Solubility 1%: 1 wt. % aqueous mixture; for Water Solubility 5%: 5 wt. % aqueous mixture; for Water Solubility 50%: 50 wt. % aqueous mixture
Method: For the evaluation of water solubility, a uniform liquid was used that was obtained by heating each compound at about 60° C. 5g aqueous mixtures were prepared at predetermined concentrations (1 wt. %, 5 wt. % and 50 wt. %) in capped sample bottles.

[2] = Static surface tension by the Wilhelmy method (plate method); settings: 0.1 wt. % aqueous solution, left 1 day, 25° C.
Method: For the measurement of surface tension, a uniform liquid was used that was obtained by heating each compound at about 60° C. The compounds were each dissolved in water to prepare 10 g of 0.1 wt. % aqueous solutions. After the aqueous solutions were left to stand for 1 day, the static surface tension thereof was measured at 25° C. according to the Wilhelmy method (plate method). The measurement instrument used was a “SURFACE TENSIOMETER CBVP-A3” (product of Kyowa Interface Science Co., Ltd.).

[3] = Dynamic surface tension by the maximum bubble pressure method; settings: 0.5 wt. % aqueous solution, 25° C., at 100 milliseconds
Method: For the measurement of dynamic surface tension, each compound was dissolved in water, heated if necessary, to prepare 80 g of 0.5 wt. % aqueous solutions. The dynamic surface tension thereof was measured at 25° C. according to the maximum bubble pressure method. The obtained value was that measured at 100 milliseconds. The measurement instrument used was a “KRUSS BUBBLE PRESSURE TENSIOMETER-BP2”.

Row | Substance | Water Solubility 1% [1] | Water Solubility 5% [1] | Water Solubility 50% [1] | Static Surface Tension 0.10% [2] | Dynamic Surface Tension 0.50% [3]
1 | C4F9—CH2CH(OH)CH2O—(CH2CH2O)40—C16H33 [Example 3] | Dissolved | Dissolved | Dissolved | 30.5 mN/m | 45 mN/m
2 | C16H33O—(CH2CH2O)15—H [Comparative Example 8, reference compound] | Dissolved | Suspended | Solid | 37.5 mN/m | 59 mN/m
3 | C4F9—CH2CH(OH)CH2O—(CH2CH2O)25—C16H33 [Example 2] | Dissolved | Dissolved | Dissolved | 23.8 mN/m | 34 mN/m
4 | C18H33COO—(CH2CH2O)23—COC18H33 [Comparative Example 9, reference compound] | Dissolved | Dissolved | Uniform gel | 34.8 mN/m | 61 mN/m
5 | C4F9—CH2CH(OH)CH2O—(CH2CH2O)23—C16H33 [Example 1] | Dissolved | Dissolved | Dissolved | 24.2 mN/m | 34 mN/m
6 | C4F9—CH2CH(OH)CH2O—(CH2CH2O)20—C18H37 [Example 4] | Dissolved | Dissolved | Uniform gel | 24.1 mN/m | 36 mN/m

Continued, values first:

Row | Water Solubility 1% [1] | Water Solubility 5% [1] | Water Solubility 50% [1] | Static Surface Tension 0.10% [2] | Dynamic Surface Tension 0.50% [3] | Substance
7 | Dissolved | Dissolved | Dissolved | 18.4 mN/m | 32 mN/m | C4F9—CH2CH(OH)CH2O—(CH2CH2O)23—CH2CH(OH)CH2—C4F9 [Example 7]
8 | Dissolved | Dissolved | Dissolved | 23.1 mN/m | 35 mN/m | C4F9—CH2CH(OH)CH2O—(CH2CH2O)25—C12H25 [Example 6]
9 | Dissolved | Dissolved | Dissolved | 21.9 mN/m | 30 mN/m | C4F9—CH2CH(OH)CH2O—(CH2CH2O)21—C12H25 [Example 5]
10 | Dissolved | Dissolved | Dissolved | 19.1 mN/m | 34 mN/m | C4F9—CH2CH(OH)CH2O—(CH2CH2O)45—CH2CH(OH)CH2—C4F9 [Example 9]
11 | Dissolved | Dissolved | Dissolved | 18.6 mN/m | 32 mN/m | C4F9—CH2CH(OH)CH2O—(CH2CH2O)35—CH2CH(OH)CH2—C4F9 [Example 8]
